One may read the melting point as the temperature, or range, at which the solid turns liquid.

The structures appear in SMILES notation.

With `C#CCOc1nc(-n2ccnc2)c(I)c(C(F)(F)F)n1` [Example 13, 4-Imidazol-1-yl-5-iodo-2-prop-2-ynyloxy-6-trifluoromethyl-pyrimidine], the melting point was in the range of 128 to 129 °C.

`O=C1CCCN1c1nc(-n2ccnc2)c(I)c(C(F)(F)F)n1` [Example 14, 1-(4-Imidazol-1-yl-5-iodo-6-trifluoromethylpyrimidin-2-yl)-pyrrolidin-2-one] came in with a melting point of 195 to 197 °C. Molecule `CSc1nc(-c2nn[nH]n2)c(I)c(C(F)(F)F)n1` [Example 15, 5-Iodo-2-methylthio-4-(2H-tetrazol-5-yl)-6-trifluoromethyl-pyrimidine] showed a melting point of 196 to 200 °C. Molecule `C#Cc1c(-n2ccnc2)nc(C)nc1C(F)(F)F` [Example 18, 5-Ethynyl-4-imidazol-1-yl-2-methyl-6-trifluoromethylpyrimidine] yielded a melting point of 121 to 122 °C. The result for `Fc1c(-n2ccnc2)nc(-n2ccnc2)nc1C(F)(F)F` [Example 19, 5-Fluoro-2,4-diimidazol-1-yl-6-trifluoromethylpyrimidine] reads 142 to 150 °C (dec.).

(Values after US6818631B1, “Fungicidal pyrimidine derivatives” (Nippon Soda Co. Ltd., priority 2003, dated 2004).)
